The subject of assay [1] is Human Umbilical Vein Endothelial Cell (HUVEC). Briefly: Inhibitory effect on growth of human umbilical vein endothelial cell (HUVEC), MTS. The class given is cell-based. The note with it: Homo sapiens, 96 h, 10 ng/ml VEGF, absorbance 490 nm.
In assay [2] the target is VEGFR2 (KDR) (Homo sapiens (Human), UniProt P35968). Briefly: VEGFR2 (KDR) enzyme assay, fluorescence polarization. The following applies: 5 μM ATP, poly(Glu, Tyr) substrate. The class given is biochemical. The method, boiled down:
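Buffer: 20 mM HEPES pH 7.4 with 5 mM MgCl2, 2 mM MnCl2 and 50 μM Na3VO4. Compound (0.0001–10 μM) was premixed 10 min with VEGFR2 (200 ng/10 μl), then poly(Glu,Tyr) substrate (10 ng/ml) and 5 μM ATP were added for 1 h at room temperature. EDTA-quenched samples were read by FP after 30 min with antibody and tracer.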
A general note: Polarisation of emitted light reports the rotation of a fluorescent probe.

For assay [3], the target named is EGFR1 (HER-1) (Homo sapiens (Human), UniProt P00533). Briefly: EGFR1 (HER-1) enzyme assay, fluorescence polarization. Format: biochemical. The following applies: 100 μM ATP, poly(Glu, Tyr) substrate.
Sequence of EGFR1 (HER-1) (P00533 25-1210): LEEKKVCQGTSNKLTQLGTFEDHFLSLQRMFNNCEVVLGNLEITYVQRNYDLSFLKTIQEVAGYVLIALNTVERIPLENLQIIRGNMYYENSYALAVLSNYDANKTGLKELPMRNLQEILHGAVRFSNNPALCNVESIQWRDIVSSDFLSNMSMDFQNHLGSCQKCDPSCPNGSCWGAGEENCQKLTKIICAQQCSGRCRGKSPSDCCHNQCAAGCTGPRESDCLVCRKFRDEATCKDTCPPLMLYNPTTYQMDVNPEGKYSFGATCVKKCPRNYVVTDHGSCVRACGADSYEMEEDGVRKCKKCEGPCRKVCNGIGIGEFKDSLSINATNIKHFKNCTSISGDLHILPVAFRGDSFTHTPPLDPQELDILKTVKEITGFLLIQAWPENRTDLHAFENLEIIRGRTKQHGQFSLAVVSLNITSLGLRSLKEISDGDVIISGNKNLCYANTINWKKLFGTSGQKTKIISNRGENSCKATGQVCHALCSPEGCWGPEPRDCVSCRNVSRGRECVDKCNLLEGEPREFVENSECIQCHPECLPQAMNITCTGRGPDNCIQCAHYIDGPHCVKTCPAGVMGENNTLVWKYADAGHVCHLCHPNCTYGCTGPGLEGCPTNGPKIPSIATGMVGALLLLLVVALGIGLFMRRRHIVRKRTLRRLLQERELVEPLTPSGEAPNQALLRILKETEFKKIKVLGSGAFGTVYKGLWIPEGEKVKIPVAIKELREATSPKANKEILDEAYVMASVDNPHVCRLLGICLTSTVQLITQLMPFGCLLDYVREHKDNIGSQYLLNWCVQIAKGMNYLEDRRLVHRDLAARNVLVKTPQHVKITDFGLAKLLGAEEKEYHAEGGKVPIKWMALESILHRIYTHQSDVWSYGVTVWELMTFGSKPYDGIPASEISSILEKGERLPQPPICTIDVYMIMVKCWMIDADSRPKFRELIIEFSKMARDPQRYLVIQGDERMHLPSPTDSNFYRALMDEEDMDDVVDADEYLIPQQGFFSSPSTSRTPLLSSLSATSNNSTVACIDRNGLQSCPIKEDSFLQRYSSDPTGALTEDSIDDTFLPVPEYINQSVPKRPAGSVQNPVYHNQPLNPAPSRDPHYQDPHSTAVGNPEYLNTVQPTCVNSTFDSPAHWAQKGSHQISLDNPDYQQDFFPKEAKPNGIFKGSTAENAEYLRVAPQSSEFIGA
Assay [4] has as its system skin cancer cell line, A431. Kind of assay: Inhibitory effect on growth of cancer cell line A431, SRB. The class given is cell-based. The note with it: Homo sapiens, A-431, 72 h, overexpressed EGFR1 (HER-1). The method, boiled down: (§1)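 Growth inhibition was measured by sulforhodamine-B staining (absorbance 570 nm) of TCA-fixed cells after 72 h compound exposure at 37 °C, 5% CO2. Test concentrations ran from 10 μM in 10-fold steps to 10^−4, with DMSO below 1%, in 10% FBS DMEM.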

Assay [5] has as its system breast cancer cell line, SK-Br3. Kind of assay: Inhibitory effect on growth of cancer cell line SK-Br3, SRB. The class given is cell-based. The note with it: Homo sapiens, SK-BR-3, 72 h, overexpressed EGFR2 (HER-2). The method, boiled down:
as §1

Assay [6] relates to colon and rectal cancer cell line, SW-620. Briefly: Inhibitory effect on growth of cancer cell line SW-620, SRB. The class given is cell-based. The following applies: Homo sapiens, 72 h, not having overexpressed EGFR and EGFR2. In a few lines:
as §1

Structures are written as SMILES.

One may read the IC50 as the concentration that inhibits the measured activity by half. Lower therefore signals higher potency.

Sequence of VEGFR2 (KDR) (P35968 20-1356): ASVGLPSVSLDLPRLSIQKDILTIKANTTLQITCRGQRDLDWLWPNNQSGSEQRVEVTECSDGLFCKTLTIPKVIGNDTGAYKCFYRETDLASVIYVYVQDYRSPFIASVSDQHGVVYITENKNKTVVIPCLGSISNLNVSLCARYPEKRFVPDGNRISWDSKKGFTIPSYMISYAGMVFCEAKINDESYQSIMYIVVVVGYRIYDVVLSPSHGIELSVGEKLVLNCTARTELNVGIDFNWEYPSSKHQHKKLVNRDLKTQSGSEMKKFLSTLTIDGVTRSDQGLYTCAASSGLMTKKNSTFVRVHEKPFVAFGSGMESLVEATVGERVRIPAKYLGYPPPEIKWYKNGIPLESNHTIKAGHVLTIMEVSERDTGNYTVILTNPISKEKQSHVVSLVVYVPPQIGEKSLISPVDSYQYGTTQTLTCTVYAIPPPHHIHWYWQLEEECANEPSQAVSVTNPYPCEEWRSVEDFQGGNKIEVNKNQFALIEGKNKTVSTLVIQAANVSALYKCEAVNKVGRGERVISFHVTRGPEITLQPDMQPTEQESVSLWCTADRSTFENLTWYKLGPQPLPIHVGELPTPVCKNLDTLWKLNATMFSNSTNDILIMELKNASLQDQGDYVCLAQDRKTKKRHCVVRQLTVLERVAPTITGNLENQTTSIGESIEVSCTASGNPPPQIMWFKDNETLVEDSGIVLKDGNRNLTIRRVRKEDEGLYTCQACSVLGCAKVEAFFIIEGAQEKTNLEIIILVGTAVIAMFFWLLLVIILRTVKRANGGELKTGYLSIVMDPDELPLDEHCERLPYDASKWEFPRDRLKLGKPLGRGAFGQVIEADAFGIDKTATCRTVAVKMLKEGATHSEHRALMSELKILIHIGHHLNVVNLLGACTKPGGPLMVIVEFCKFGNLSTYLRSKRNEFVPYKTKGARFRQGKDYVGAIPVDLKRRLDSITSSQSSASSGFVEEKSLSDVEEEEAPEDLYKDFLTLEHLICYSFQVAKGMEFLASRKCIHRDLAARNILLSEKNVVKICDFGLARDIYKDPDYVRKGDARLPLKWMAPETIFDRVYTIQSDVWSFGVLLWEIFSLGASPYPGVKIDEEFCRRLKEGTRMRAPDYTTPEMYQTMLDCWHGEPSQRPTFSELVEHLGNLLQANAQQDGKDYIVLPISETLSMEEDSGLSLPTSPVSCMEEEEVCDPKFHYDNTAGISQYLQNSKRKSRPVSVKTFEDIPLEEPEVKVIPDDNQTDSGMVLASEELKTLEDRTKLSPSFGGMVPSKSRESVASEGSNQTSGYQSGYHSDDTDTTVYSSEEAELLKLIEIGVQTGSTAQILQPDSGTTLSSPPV

As for `C=CC(=O)Nc1cc2c(Nc3ccc(Br)c(Cl)c3F)ncnc2cc1OCCNC(=O)CO` [Example 149, N-{4-(4-bromo-3-chloro-2-fluoro-phenylamino)-7-[2-(2-hydroxy-acetylamino)-ethoxy]-quinazolin-6-yl}-acrylamide], the IC50 in assay [1] was 204 nM; in assay [2], 147 nM; in assay [3], 16 nM; in assay [4], 15 nM; in assay [5] it was 41 nM; in assay [6] it was 9560 nM.
Turning to `C=CC(=O)Nc1cc2c(Nc3ccc(Br)cc3F)ncnc2cc1OCCNC(=O)C(C)CN(C)C` (stereo not drawn) [Example 74, N-{4-(4-bromo-2-fluoro-phenylamino)-7-[2-(3-dimethylamino-2-methyl-propionylamino)-ethoxy]-quinazolin-6-yl}-acrylamide], the IC50 was 358 nM in assay [1]; 372 nM in assay [2]; 251 nM in assay [3]; 321 nM in assay [4]; 658 nM in assay [5]; 726 nM in assay [6].
Regarding `C=CC(=O)Nc1cc2c(Nc3ccc(Br)cc3Cl)ncnc2cc1OCCNC(C)=O` [Example 115, N-[7-(2-acetylamino-ethoxy)-4-(4-bromo-2-chloro-phenylamino)-quinazolin-6-yl]-acrylamide], the IC50 in assay [1] came to 934 nM; in assay [2], 854 nM; in assay [3] it was 42 nM; in assay [4], 45 nM; in assay [5], 897 nM; in assay [6] it was 10000 nM.
As for `C=CC(=O)Nc1cc2c(Nc3ccc(Br)c(Cl)c3F)ncnc2cc1OCCNC(=O)CCO` [Example 145, N-{4-(4-bromo-3-chloro-2-fluoro-phenylamino)-7-[2-(3-hydroxy-propionylamino)-ethoxy]-quinazolin-6-yl}-acrylamide], the IC50 in assay [1] is 116 nM; in assay [2] it was 88 nM; in assay [3] it was 41 nM; in assay [4], 45 nM; in assay [5], 58 nM; in assay [6], 2630 nM.
Turning to `C=CC(=O)Nc1cc2c(Nc3ccc(Br)cc3F)ncnc2cc1OCCNC(=O)CCN(C)C` [Example 61, N-{4-(4-bromo-2-fluoro-phenylamino)-7-[2-(3-dimethylamino-propionylamino)-ethoxy]-quinazolin-6-yl}-acrylamide], the IC50 in assay [1] was found to be 384 nM; in assay [2], 354 nM; in assay [3], 9 nM; in assay [4], 6 nM; in assay [5] it was 59 nM; in assay [6], 10000 nM.
For the molecule `C=CC(=O)Nc1cc2c(Nc3ccc(Br)cc3F)ncnc2cc1OCCNC(=O)CN1CCOCC1` [Example 103, N-{4-(4-bromo-2-fluoro-phenylamino)-7-[2-(2-morpholin-4-yl-acetylamino)-ethoxy]-quinazolin-6-yl}-acrylamide], the IC50 in assay [1] came out at 932 nM; in assay [2] it was 782 nM; in assay [3], 32 nM; in assay [4], 35 nM; in assay [5] it was 399 nM; in assay [6], 3670 nM.
For the molecule `C=CC(=O)Nc1cc2c(Nc3ccc(Br)cc3F)ncnc2cc1OCCNC(=O)NC(C)CC` (stereo not drawn) [Example 38, N-{4-(4-bromo-2-fluoro-phenylamino)-7-[2-(3-sec-butyl-ureido)-ethoxy]-quinazolin-6-yl}-acrylamide], the IC50 in assay [1] is 367 nM; in assay [2], 324 nM; in assay [3], 20 nM; in assay [4], 21 nM; in assay [5], 245 nM; in assay [6], 2580 nM.
Consider `C=CC(=O)Nc1cc2c(Nc3ccc(Br)cc3F)ncnc2cc1OCCNC(=O)CN(C)C` [Example 25, N-[4-(4-bromo-2-fluoro-phenylamino)-7-[2-(2-dimethylamino-acetylamino)-ethoxy]-quinazolin-6-yl]-acrylamide], for which the IC50 in assay [1] came to 786 nM; in assay [2], 584 nM; in assay [3] it was 2 nM; in assay [4], 16 nM; in assay [5], 21 nM; in assay [6], 5790 nM.
For the molecule `C=CC(=O)Nc1cc2c(Nc3ccc(Br)cc3F)ncnc2cc1OCC(=O)NCCN(CC)CC` [Example 65, N-{4-(4-bromo-2-fluoro-phenylamino)-7-[(2-diethylamino-ethylcarbamoyl)-methoxy]-quinazolin-6-yl}-acrylamide], the IC50 stood at 964 nM in assay [1]; 954 nM in assay [2]; 652 nM in assay [3]; 596 nM in assay [4]; 694 nM in assay [5]; 10000 nM in assay [6].
For `C=CC(=O)Nc1cc2c(Nc3ccc(Br)cc3F)ncnc2cc1OCCNC(=O)NCCC` [Example 34, N-{4-(4-bromo-2-fluoro-phenylamino)-7-[2-(3-propyl-ureido)-ethoxy]-quinazolin-6-yl}-acrylamide], the IC50 was 678 nM in assay [1]; 458 nM in assay [2]; 26 nM in assay [3]; 35 nM in assay [4]; 67 nM in assay [5]; 2540 nM in assay [6].
On to `C=CC(=O)Nc1cc2c(Nc3ccc(Br)cc3F)ncnc2cc1OCCCNC(C)=O` [Example 13, N-[7-(3-acetylamino-propoxy)-4-(4-bromo-2-fluoro-phenylamino)-quinazolin-6-yl]-acrylamide], for which the IC50 was 79 nM in assay [1]; 157 nM in assay [2]; 4 nM in assay [3]; 28 nM in assay [4]; 45 nM in assay [5]; 10000 nM in assay [6].
Take `C=CC(=O)Nc1cc2c(Nc3ccc(Br)c(Cl)c3F)ncnc2cc1OCCNC(C)=O` [Example 141, N-[7-(2-acetylamino-ethoxy)-4-(4-bromo-3-chloro-2-fluoro-phenylamino)-quinazolin-6-yl]-acrylamide]: the IC50 was found to be 66 nM in assay [1]; 56 nM in assay [2]; 13 nM in assay [3]; 12 nM in assay [4]; 37 nM in assay [5]; 10000 nM in assay [6].
For the molecule `C=CC(=O)Nc1cc2c(Nc3ccc(Br)c(Cl)c3F)ncnc2cc1OCCNC(=S)NCC` [Example 170, N-{4-(4-bromo-3-chloro-2-fluoro-phenylamino)-7-[2-(3-ethyl-thioureido)-ethoxy]-quinazolin-6-yl}-acrylamide], the IC50 came out at 287 nM in assay [1]; 189 nM in assay [2]; 68 nM in assay [3]; 89 nM in assay [4]; 43 nM in assay [5]; 8250 nM in assay [6].
As to `C=CC(=O)Nc1cc2c(Nc3ccc(Br)cc3F)ncnc2cc1OCCNC(=O)CCN(CC)CC` [Example 59, N-{4-(4-bromo-2-fluoro-phenylamino)-7-[2-(3-diethylamino-propionylamino)-ethoxy]-quinazolin-6-yl}-acrylamide], the IC50 in assay [1] is 204 nM; in assay [2], 198 nM; in assay [3], 44 nM; in assay [4], 45 nM; in assay [5], 111 nM; in assay [6], 10000 nM.
Consider `C=CC(=O)Nc1cc2c(Nc3ccc(Br)c(Cl)c3F)ncnc2cc1OCCNC(=O)NCC` [Example 168, N-{4-(4-bromo-3-chloro-2-fluoro-phenylamino)-7-[2-(3-ethyl-ureido)-ethoxy]-quinazolin-6-yl}-acrylamide], for which the IC50 in assay [1] is 117 nM; in assay [2], 38 nM; in assay [3] it was 8 nM; in assay [4], 12 nM; in assay [5], 32 nM; in assay [6] it was 10000 nM.
For the molecule `C=CC(=O)Nc1cc2c(Nc3ccc(Br)cc3F)ncnc2cc1OCCCNC(=O)NCC` [Example 16, N-{4-(4-bromo-2-fluoro-phenylamino)-7-[3-(3-ethyl-ureido)-propoxy]-quinazolin-6-yl}-acrylamide], the IC50 in assay [1] was 102 nM; in assay [2] it was 208 nM; in assay [3], 11 nM; in assay [4], 18 nM; in assay [5], 228 nM; in assay [6] it was 10000 nM.
`C=CC(=O)Nc1cc2c(Nc3ccc(Br)cc3F)ncnc2cc1OCCNC(=O)CN` [Example 57, N-[7-[2-(2-amino-acetylamino)-ethoxy]-4-(4-bromo-2-fluoro-phenylamino)-quinazolin-6-yl]-acrylamide]: the IC50 was found to be 379 nM in assay [1]; 235 nM in assay [2]; 89 nM in assay [3]; 91 nM in assay [4]; 781 nM in assay [5]; 9570 nM in assay [6].
With `C=CC(=O)Nc1cc2c(Nc3cc(OC)c(Cl)cc3F)ncnc2cc1OCCNC(C)=O` [Example 129, N-[7-(2-acetylamino-ethoxy)-4-(4-chloro-2-fluoro-5-methoxy-phenylamino)-quinazolin-6-yl]-acrylamide], the IC50 in assay [1] is 350 nM; in assay [2] it was 357 nM; in assay [3] it was 80 nM; in assay [4], 82 nM; in assay [5] it was 106 nM; in assay [6] it was 721 nM.

The values are drawn from patent publication US8846699B2, “Quinazoline derivatives as a multiplex inhibitor and method for the preparation thereof” (Hanmi Pharm. Co., Ltd., priority 2005, dated 2014).
